Values joined by “and” are separate entries in the source; they are usually repeats but may differ in a detail not shown here. Equal entries are not always repeated. ± gives the expanded uncertainty stated by the source.
Details: Liquid; for viscosity: Falling or rolling sphere viscometry; for mass density: Vibrating tube method

CCCCn1cc[n+](C)c1.F[B-](F)(F)F [1-butyl-3-methylimidazolium tetrafluoroborate]
Details	mass density	viscosity
273.15 K, 100 kPa	1219.64 ± 1.3 kg/m3	543 ± 63 mPa·s and 542.8 ± 63 mPa·s
273.15 K, 101.33 kPa	1219.5 ± 1.3 kg/m3 and 1219.64 ± 1.3 kg/m3	510.8 ± 43 mPa·s and 511 ± 43 mPa·s
278.15 K, 101.33 kPa	1215.79 ± 1.3 kg/m3	353 ± 26 mPa·s and 352.9 ± 26 mPa·s
283.15 K, 100 kPa	1212.22 ± 1.3 kg/m3	263.7 ± 18 mPa·s and 263.8 ± 18 mPa·s
283.15 K, 101.33 kPa	1212.07 ± 1.3 kg/m3 and 1212.22 ± 1.3 kg/m3	250.7 ± 16 mPa·s and 250.6 ± 16 mPa·s
283.15 K, 800 kPa	1212.53 ± 1.3 kg/m3	266.3 ± 18 mPa·s
283.15 K, 11000 kPa	1217.32 ± 1.4 kg/m3	302.2 ± 21 mPa·s
283.15 K, 24900 kPa	1223.58 ± 1.5 kg/m3	359.1 ± 26 mPa·s
283.15 K, 49600 kPa	1234.03 ± 1.8 kg/m3	484.8 ± 40 mPa·s
283.15 K, 75300 kPa	1244.07 ± 2.1 kg/m3	655.9 ± 59 mPa·s
283.15 K, 100600 kPa	1253.28 ± 2.4 kg/m3	875 ± 85 mPa·s
288.15 K, 101.33 kPa	1208.38 ± 1.3 kg/m3	182.4 ± 11 mPa·s
293.15 K, 100 kPa	1204.98 ± 1.3 kg/m3	142.1 ± 7.7 mPa·s and 142 ± 7.7 mPa·s
293.15 K, 101.33 kPa	1204.83 ± 1.3 kg/m3 and 1204.98 ± 1.3 kg/m3	135.6 ± 7.1 mPa·s and 135.7 ± 7.1 mPa·s
298.15 K, 100 kPa	1201.43 ± 1.3 kg/m3	108 ± 5.3 mPa·s and 108.5 ± 5.3 mPa·s and 108.7 ± 5.3 mPa·s
298.15 K, 101.33 kPa	1201.29 ± 1.3 kg/m3 and 1201.43 ± 1.3 kg/m3	103.7 ± 5 mPa·s [middle of 4 runs]
298.15 K, 500 kPa	1201.61 ± 1.3 kg/m3	108.6 ± 5.3 mPa·s
298.15 K, 25900 kPa	1213.76 ± 1.5 kg/m3	142.6 ± 7.6 mPa·s
298.15 K, 50800 kPa	1224.72 ± 1.8 kg/m3	185 ± 11 mPa·s
298.15 K, 75900 kPa	1234.94 ± 2 kg/m3	239.8 ± 15 mPa·s
298.15 K, 101100 kPa	1244.42 ± 2.3 kg/m3	308.3 ± 22 mPa·s
298.15 K, 126200 kPa	1253.22 ± 2.7 kg/m3	393.9 ± 30 mPa·s
298.15 K, 150600 kPa	1261.21 ± 3 kg/m3	499.9 ± 41 mPa·s
298.15 K, 150700 kPa	1261.23 ± 3 kg/m3	500.6 ± 41 mPa·s
298.15 K, 175400 kPa	1268.78 ± 3.3 kg/m3	634.7 ± 56 mPa·s
298.15 K, 200900 kPa	1276.07 ± 3.7 kg/m3	808.3 ± 77 mPa·s
303.15 K, 100 kPa	1197.88 ± 1.3 kg/m3	84.6 ± 3.8 mPa·s
303.15 K, 101.33 kPa	1197.75 ± 1.3 kg/m3 and 1197.88 ± 1.3 kg/m3	80.6 ± 3.6 mPa·s and 80.7 ± 3.6 mPa·s
313.15 K, 100 kPa	1190.78 ± 1.2 kg/m3	53.5 ± 2.3 mPa·s and 53.6 ± 2.3 mPa·s
313.15 K, 101.33 kPa	1190.68 ± 1.2 kg/m3	51.3 ± 2.2 mPa·s
323.15 K, 100 kPa	1183.79 ± 1.2 kg/m3	35.6 ± 1.5 mPa·s
323.15 K, 101.33 kPa	1183.67 ± 1.2 kg/m3 and 1183.79 ± 1.2 kg/m3	34.6 ± 1.5 mPa·s
323.15 K, 140 kPa	1183.79 ± 1.2 kg/m3	36 ± 1.5 mPa·s
323.15 K, 10495 kPa	1189.26 ± 1.3 kg/m3	39.3 ± 1.7 mPa·s
323.15 K, 25446 kPa	1196.8 ± 1.5 kg/m3	44.5 ± 1.9 mPa·s
323.15 K, 50493 kPa	1208.59 ± 1.7 kg/m3	55.5 ± 2.4 mPa·s
323.15 K, 75560 kPa	1219.46 ± 2 kg/m3	68.1 ± 3 mPa·s
323.15 K, 100566 kPa	1229.48 ± 2.2 kg/m3	83.3 ± 3.8 mPa·s
323.15 K, 125543 kPa	1238.76 ± 2.5 kg/m3	101.5 ± 4.9 mPa·s
323.15 K, 150422 kPa	1247.36 ± 2.9 kg/m3	123.2 ± 6.4 mPa·s
323.15 K, 175463 kPa	1255.42 ± 3.2 kg/m3	149.2 ± 8.3 mPa·s
323.15 K, 200347 kPa	1262.9 ± 3.5 kg/m3	180.1 ± 11 mPa·s
323.15 K, 225321 kPa	1269.94 ± 3.9 kg/m3	216.9 ± 13 mPa·s
323.15 K, 250139 kPa	1276.5 ± 4.3 kg/m3	260.9 ± 17 mPa·s
333.15 K, 100 kPa	1176.81 ± 1.2 kg/m3	25.2 ± 1.1 mPa·s and 25.5 ± 1.1 mPa·s
333.15 K, 101.33 kPa	1176.7 ± 1.2 kg/m3 and 1176.81 ± 1.2 kg/m3	24.5 ± 1 mPa·s
343.15 K, 100 kPa	1169.87 ± 1.2 kg/m3	18.4 ± 0.8 mPa·s and 18 ± 0.8 mPa·s
343.15 K, 101.33 kPa	1169.79 ± 1.2 kg/m3	18.1 ± 0.8 mPa·s
348.15 K, 100 kPa	1166.45 ± 1.2 kg/m3	16.2 ± 0.7 mPa·s and 15.9 ± 0.7 mPa·s
348.15 K, 101.33 kPa	1166.45 ± 1.2 kg/m3	–
348.15 K, 11700 kPa	1172.95 ± 1.3 kg/m3	17.4 ± 0.7 mPa·s
348.15 K, 25200 kPa	1180.23 ± 1.4 kg/m3	19.4 ± 0.8 mPa·s
348.15 K, 50700 kPa	1192.94 ± 1.6 kg/m3	23.3 ± 1 mPa·s
348.15 K, 75600 kPa	1204.4 ± 1.9 kg/m3	27.8 ± 1.2 mPa·s
348.15 K, 100600 kPa	1214.97 ± 2.2 kg/m3	33 ± 1.4 mPa·s
348.15 K, 125600 kPa	1224.72 ± 2.5 kg/m3	38.8 ± 1.7 mPa·s
348.15 K, 150600 kPa	1233.78 ± 2.8 kg/m3	45.6 ± 2 mPa·s
348.15 K, 175600 kPa	1242.2 ± 3.1 kg/m3	53.4 ± 2.4 mPa·s
348.15 K, 200600 kPa	1250.04 ± 3.4 kg/m3	62.3 ± 2.8 mPa·s
348.15 K, 225500 kPa	1257.34 ± 3.8 kg/m3	72.6 ± 3.4 mPa·s
348.15 K, 250400 kPa	1264.17 ± 4.1 kg/m3	84.6 ± 4.1 mPa·s
348.15 K, 275300 kPa	1270.59 ± 4.5 kg/m3	98.4 ± 4.8 mPa·s
348.15 K, 300000 kPa	1276.57 ± 4.9 kg/m3	114 ± 5.7 mPa·s
353.15 K, 101.33 kPa	1162.92 ± 1.2 kg/m3	13.9 ± 0.6 mPa·s and 13.8 ± 0.6 mPa·s
360.15 K, 101.33 kPa	1158.27 ± 1.2 kg/m3	–
362.76 K, 101.33 kPa	1156.51 ± 1.2 kg/m3	–
363.15 K, 101.33 kPa	1156.11 ± 1.2 kg/m3	–
363.16 K, 101.33 kPa	1156.22 ± 1.2 kg/m3	–

Source: the NIST ThermoML archive (doi:10.1021/je700370z)
